Literature values as cited in patent publication US20130337054A1, “TREATMENT OF EXCESSIVE MENSTRUAL BLOOD LOSS BY INTRAVAGINAL ADMINISTRATION OF LOW DOSES OF ANTIFIBRINOLYTIC OR HEMOSTATIC AGENT” (ARSTAT Inc., priority 2011, published 2013).

Experiments:
[1] = tested on: menorrhagia (menstrual blood loss); details: oral; cited from earlier work
[2] = tested on: postoperative bleeding complications; details: mouthwash, compared to placebo; cited from earlier work
[3] = cited from earlier work
menorrhagia = details: oral, cited from earlier work
postoperative blood loss = details: cited from earlier work

NC[C@H]1CC[C@H](C(=O)O)CC1 [tranexamic acid]
difference versus placebo in reduction of large stains, small and large clots and changes in serum ferritin levels [1]: no statistically significant differences
incidence of postoperative bleeding complications [2]: reduce the incidence
plasma concentration ([3]; after a mouth rinse): below 2 mcg/mL
saliva concentration, maximum level ([3]; after a mouth rinse): above 200 mcg/mL
time saliva concentration remained at a therapeutic level ([3]; after a mouth rinse): more than two
drug in saliva samples ([3]; after an oral tablet): not detected
mean drug plasma concentration ([3]; after an oral tablet): 7000 ng/mL
risk of gastrointestinal adverse events (menorrhagia; 6 g/day): increased
efficacy in relation to dose (menorrhagia; EMEA 2000): dose-dependent increase in efficacy

aprotinin
plasma drug levels (postoperative blood loss; in vivo): without detectable plasma drug levels
postoperative blood loss (postoperative blood loss; locally administered): Reduction
